Experimental findings from ChEMBL document CHEMBL3826953, “Development of Autotaxin Inhibitors: An Overview of the Patent and Primary Literature” (J Med Chem, 2016) are described below.

Bounds are passed on as bounds.

Data set [1] concerns the target T1, Autotaxin (Homo sapiens, UniProt Q13822). Nature of the data set: Inhibition of recombinant ATX in human […] cells using lysophosphatidylcholine as substrate preincubated for 15 mins followed by substrate addition measured after 90 mins by choline release assay. Format: cell-based.
For data set [2], the target named is T1, Autotaxin. The data set can be described thus: Inhibition of recombinant ATX in human MDA-MB-435 cells at 10 uM using FS3 as substrate fluorescence assay relative to control. The class given is cell-based.
Data set [3] concerns the target T1, Autotaxin. To be noted: 10 uM.
Description: Inhibition of recombinant human ATX at 10 uM using lysophosphatidylcholine (14:0) as substrate measured after 2 hrs by AmplexRed dye based fluorescence assay relative to control
In data set [4] the target is T1, Autotaxin. Nature of the data set: Inhibition of recombinant human ATX using CPF4 as substrate measured after 3 hrs by fluorescence assay.
Data set [5] concerns the target T1, Autotaxin. The data set can be described thus: Inhibition of recombinant human C-terminal His-tagged ATX expressed in HEK293E cells using lysophosphatidylcholine as substrate preincubated with enzyme followed by substrate addition measured after 1 hr by AmplexRed dye based fluorescence assay.
In data set [6] the target is Autotaxin (Rattus norvegicus, UniProt Q64610). Nature of the data set: Inhibition of ATX in rat plasma assessed as inhibition of LPA production after 2 hrs by LC-MS/MS analysis. The class given is cell-free.
The target of data set [7] is T2, Autotaxin (Mus musculus, UniProt Q9R1E6). Nature of the data set: Inhibition of recombinant mouse ATX using lysophosphatidylcholine as substrate by choline release assay.
Data set [8] can be described thus: Half life in human. Conditions: in vivo. Format: ADME, organism-based.
The target of data set [9] is T2, Autotaxin. Nature of the data set: Inhibition of ATX in mouse plasma assessed as inhibition of LPA production after 2 hrs by LC-MS/MS analysis. Format: cell-free.
Data set [10] has as its target T1, Autotaxin. Nature of the data set: Inhibition of human recombinant ATX using FS3 as substrate incubated for 30 mins by fluorescence assay.
Data set [11] deals with T1, Autotaxin. Nature of the data set: Inhibition of recombinant ATX in human Hep3B cells using lysophosphatidylcholine as substrate preincubated for 15 mins followed by substrate addition measured after 1.5 to 3 hrs by choline release assay. The class given is cell-based, Hep 3B2.
Data set [12] has as its target T1, Autotaxin. Nature of the data set: Mixed-type inhibition of human recombinant ATX using FS3 as substrate assessed as enzyme-inhibitor complex incubated for 2 hrs by Michaelis-Menten equation analysis.
In data set [13] the target is T1, Autotaxin. Nature of the data set: Mixed-type inhibition of human recombinant ATX using FS3 as substrate assessed as enzyme-substrate-inhibitor complex incubated for 2 hrs by Michaelis-Menten equation analysis.
Data set [14] has as its target T1, Autotaxin. The data set can be described thus: Inhibition of human recombinant ATX using FS3 as substrate incubated for 2 hrs by fluorescence assay.
Data set [15] addresses T1, Autotaxin. Nature of the data set: Inhibition of recombinant human C-terminal V5/His6-tagged ATX expressed in HEK293 cells assessed as choline release at 0.5 uM using oleoyl-lysophosphatidylcholine as substrate incubated for 18 hrs by linear regression analysis.
Data set [16] concerns the target T1, Autotaxin. The data set can be described thus: Inhibition of recombinant human C-terminal V5/His6-tagged ATX expressed in HEK293 cells assessed as choline release at 0.5 uM using oleoyl-lysophosphatidylcholine as substrate incubated for 18 hrs by non-linear regression analysis.
The target in data set [17] is T1, Autotaxin. Nature of the data set: Inhibition of recombinant human C-terminal V5/His6-tagged ATX expressed in HEK293 cells assessed as residual activity at 10 uM using oleoyl-lysophosphatidylcholine as substrate incubated for 16 hrs by choline release assay relative to control.
The target of data set [18] is T1, Autotaxin. The data set can be described thus: Inhibition of recombinant human C-terminal V5/His6-tagged ATX expressed in HEK293 cells assessed as residual activity at 100 uM using oleoyl-lysophosphatidylcholine as substrate incubated for 16 hrs by choline release assay relative to control.
Data set [19] deals with T1, Autotaxin. The data set can be described thus: Inhibition of recombinant human C-terminal V5/His6-tagged ATX expressed in HEK293 cells assessed as residual activity at 1 uM using oleoyl-lysophosphatidylcholine as substrate incubated for 16 hrs by choline release assay relative to control.
A short description of data set [20]: Plasma concentration in Lewis rat air pouch model of inflammation at 100 mg/kg, po administered through gavage 1 hr before carrageenan injection measured after 3 hrs by LC-MS/MS analysis relative to control. Format: ADME, organism-based.
Data set [21] concerns Rattus norvegicus. The data set can be described thus: In vivo inhibition of ATX in Lewis rat air pouch model of inflammation assessed as inhibition of carrageenan-induced LPA production in plasma at 100 mg/kg, po administered through gavage 1 hr before carrageenan injection measured after 3 hrs by LC-MS/MS analysis relative to control. Format: functional.
Data set [22] in a line: Clearance in Lewis rat at 1 mg/kg, iv measured up to 24 hrs by LC-MS/MS analysis. The class given is ADME, organism-based. To be noted: in vivo.
A short description of data set [23]: Effective half life in Lewis rat at 1 mg/kg, iv measured up to 24 hrs by LC-MS/MS analysis. Format: ADME, organism-based. Conditions: in vivo, read-out: t1/2eff (converted).
In data set [24] the test system is Rattus norvegicus. Nature of the data set: In vivo inhibition of ATX in Lewis rat air pouch model of inflammation assessed as inhibition of carrageenan-induced LPA production in pouch fluid at 100 mg/kg, po administered through gavage 1 hr before carrageenan injection measured after 3 hrs by LC-MS/MS analysis relative to control. The class given is functional.

Data set [25] is described as follows: Plasma concentration in Lewis rat air pouch model of inflammation at 3 mg/kg, po administered through gavage 1 hr before carrageenan injection measured after 3 hrs by LC-MS/MS analysis relative to control. Format: ADME, organism-based.
Data set [26] is described as follows: Oral bioavailability in Lewis rat at 1 to 100 mg/kg administered through gavage measured up to 24 hrs by LC-MS/MS analysis. The class given is ADME, organism-based. Conditions: in vivo.
For data set [27], the target named is T1, Autotaxin. Nature of the data set: Inhibition of recombinant ATX (unknown origin) expressed in baculovirus infected Hi5 cells using L-alpha-lysophosphatidylcholine as substrate preincubated for 30 mins followed by substrate addition measured after 90 mins by AmplexRed dye based fluorescence plate reader analysis. To be noted: BTI-TN-5B1-4.

Take `Cc1c(Sc2cccc(C(=O)O)n2)c2ccc(Cl)cc2n1-c1cnn(C)c1`: in [1], the concentration for half-maximal inhibition (IC50) (as a rule, the concentration that gives 50% inhibition) was below 300 nM.

On to `CCn1cc(C(=O)O)c(=O)c2cnc(N3CCN(C(=S)NCc4cc(Cl)cc(Cl)c4)CC3)nc21`, for which, in data set [2], the inhibition (as a rule, how much of the control response was suppressed) was 0%.

In the case of `O=C(Nc1cccc(F)c1)c1cc(S(=O)(=O)N2CCOCC2)c(Cl)cc1Cl`, the inhibition in data set [3] is 41%. Also, the IC50 in data set [4] came out at 31.4 nM.

Consider `O=C(c1cc(-c2cnn[nH]2)ccn1)N1CCc2nc(NC3Cc4ccccc4C3)ncc2C1`, for which the IC50 in data set [5] is below 1.7 nM.

For `CCc1nc2c(C)cc(N3CCN(CC(=O)N4CC(O)C4)CC3)cn2c1N(C)c1nc(-c2ccc(F)cc2)c(C#N)s1` [ZIRITAXESTAT], the IC50 in data set [6] is at least 500 nM; in data set [7], 224 nM; in data set [9] it was at least 500 nM. In data set [8], the half-life is 5 h.

Regarding `O=C(CCc1nc2ccccc2s1)N1CCc2ncnc(Cc3ccc(F)cc3)c2C1`, in data set [10], the half-maximal inhibitory concentration (IC50) is 2.59 nM.

As to `N#C/C(=C\c1nn(Cc2ccc(F)cc2)c2cc(Cl)ccc12)c1ccc(C(=O)O)cc1`, the IC50 in [11] is below 500 nM.

For the compound `CCCCCCCCCCCCCCc1ccc(CP(=O)(O)O)cc1`, the values for the Ki in [12] and in data set [13] were 270 nM and 280 nM, respectively. Besides, in data set [14], the concentration for half-maximal inhibition (IC50) was 170 nM.

Turning to `CCCCCCCCCCCCCCCC(=O)N[C@@H](Cc1ccc(OCc2ncc(C)c(OC)c2C)cc1)[C@@H](O)CP(=O)(O)O`, the figures for the Ki in data set [15] and in data set [16] were 390 nM and 1300 nM, respectively. The Activity was 13% in [17], 6% in data set [18] and 27% in data set [19].

On to `O=C(CCN1CCN(C(=O)OCc2cc(Cl)cc(Cl)c2)CC1)c1ccc2[nH]c(=O)oc2c1`, for which the concentration at 3 h in [20] stood at 2680 nM; in data set [25], 79 nM. Further, the inhibition in vivo at 100 mg/kg in data set [21] and in data set [24] was at most 95% each time. Moreover, in data set [22], the clearance – broadly, the rate of elimination divided by the concentration – amounted to 31 mL/min/kg. The half-life in data set [23] was 1.2 h. Moreover, the bioavailability (in general, the share of a dose that reaches the circulation, judged against a reference dose that is usually intravenous) in data set [26] stood at 43%.

`O=C(OCc1cc(Cl)cc(Cl)c1)N1CCC(N2CCN(C(=O)c3ccc4[nH]c(=O)oc4c3)CC2)CC1`: the INH in data set [27] was below 1 µM.
